From PMC12610573, “New Chlormequat-Based Ionic Liquids as Plant Resistance Inducers” (Molecules, 2025)

Legend:
[1] = test system: Tobamovirus tabaci (tobacco mosaic virus, TMV) on Nicotiana tabacum cv. Xanthi; assay: SAR induction assay: necrotic area after TMV inoculation of sprayed tobacco; assay type: in vivo; conditions: for SAR Induction (percentage of necrotic area on leaves): TMV inoculation after 7 days, read 7 days later, UTC 34.54; for Percentage of necrotic spot coverage (leaf shown in supplementary figure): single leaf image; for pest or weed control at 125 µg/mL / pest or weed control at 250 µg/mL: topical, read-out: Reduction in Necrotic Area; for pest or weed control at 125 µg/mL / pest or weed control at 250 µg/mL / Reduction in Necrotic Area: compared with untreated control plants
Description: Plants of Nicotiana tabacum cv. Xanthi were grown under greenhouse conditions at 25 °C and 50% relative humidity, under natural daylight during the May–August growing season, with a natural photoperiod. The plants were sprayed with solutions containing the tested compounds.
In all experiments, the TMV SL-1 isolate Tobamovirus (TMV) was used. To obtain a viral inoculum, Nicotiana tabacum cv. Samsun plants were sap-inoculated with previously virus-infected plant material. After the appearance of disease symptoms on the infected plants (leaf mosaic), the virus was isolated by sucrose density gradient centrifugation with 0.01 M Tris-HCl, pH 7.0, to prepare the infectious inoculum. The concentration of virus in the obtained preparation was determined spectrophotometrically. The samples of TMV were stored at −20 °C until use.
The tested active substances at a given concentration were sprayed on tobacco plants with three fully developed leaves. The volume of working solution used was equal to 10 mL per plant. The compounds were dissolved in a water/propylene glycol solution (95/5, v/v). The plants of the untreated control variant were sprayed with a water/propylene glycol solution (95/5, v/v) that was used for the preparation of solutions of the tested compounds. After seven days, the plants were mechanically inoculated using purified viral preparations (0.01 ng/mL as described in [34]).
The plants were inoculated with the TMV inoculum at a concentration of 3.8 × 10^−4 ng per leaf. For each variant of treatment, 3 plants were sprayed, and 3 leaves of each plant were analyzed. The entire experiment was performed in 2 replicates. Necrotic areas on the leaves were determined using ImageJ software.
The surface of a leaf or an area with necrotic spots is represented by a set of pixels in the image, which are counted by the program. Reduction in necrotic area (ISAR) is expressed by the following formula:(1) ISAR=100−(At/Ac∗100) where At is the ratio of the area of necrotic spots caused by viral infection that appeared on the leaf treated with the test substance to the whole area of the leaf; Ac is the ratio of the area of the necrotic spots caused by viral infection that appeared on the leaf of the control plant to the whole area of the leaf.
(§1) Statistical significance of the effect of the treatments of plants with tested compounds on the phytotoxicity and SAR induction was assessed with the ANOVA test performed using the Statistica program StatSoft with software version 9.1 (StatSoft Sp. z o.o., Kraków, Poland). The statistical assumptions of normality and homogeneity of variances were verified prior to conducting the ANOVA tests. Differences between the means were estimated with Tukey’s HSD test at the significance level of p = 0.05.

[2] = test system: radish (Raphanus sativus) sprouts; assay: Phytotoxicity test on radish sprouts; assay type: in vivo; conditions: for Reduction in Sprout Mass: compared with untreated control; for Mass of 25 Sprouts: radish, 5 days, UTC 3.09 g; for Phytotoxic effect on radish sprout mass: versus control
Description: Twenty five seeds of radish (Raphanus sativus) were placed on a filter tissue in a Petri dish. […] Then, sprouts were weighted. All variants of treatment were tested together, with 3 replications (plates) in each of 2 cycles performed. Results were subjected to statistical analysis as described in Section 4.8.
as §1

[3] = Thermogravimetric analysis (TGA), thermal stability; conditions: TGA under nitrogen, 10 °C/min; for Thermal Stability T5%onset: 5% weight loss onset; for Thermal Stability Tonset: decomposition onset
Description: TGA was performed on a TGA Q50 (Texas Instruments, Dallas, TX, USA) under nitrogen. Samples (5–10 mg) were heated from 25 °C to 500 °C at 10 °C/min with an isothermal step at 85 °C for 10 min. T5%onset and Tonset values were recorded.

[4] = Solubility tests in representative solvents (Vogel protocol); conditions: 25 °C; for solubility: thermodynamic from solid
Description: The solubilities of the prepared ILs in ten representative solvents were determined according to the protocols from Vogel’s Textbook of Practical Organic Chemistry. The solvents chosen for the study were arranged in order of descending value of their Snyder polarity index: water—9.0, methanol—6.6, acetone—5.1, isopropanol—4.3, toluene—2.3, and hexane—0.0.

## O=C(O)c1ccccc1O [Salicylic acid]
[1]; 125 mg/L spray
  SAR Induction (percentage of necrotic area on leaves): 26.60 fg C %
[1]; 125 mg/L
  Percentage of necrotic spot coverage (leaf shown in supplementary figure): 23.67%
  pest or weed control at 125 µg/mL: 23%
[1]; 250 mg/L spray
  SAR Induction (percentage of necrotic area on leaves): 25.06 g C %
[1]; 250 mg/L
  Percentage of necrotic spot coverage (leaf shown in supplementary figure): 19.86%
  pest or weed control at 250 µg/mL: 27.4%
[2]; 125 mg/L
  Reduction in Sprout Mass: 29.77%
  Mass of 25 Sprouts: 2.17 cd B g
[2]; 250 mg/L
  Reduction in Sprout Mass: 63.27%
  Mass of 25 Sprouts: 1.14 bc A g

## O=C(O)c1cc(Cl)ccc1O [5-chlorosalicylic acid]
[1]; 125 mg/L spray
  SAR Induction (percentage of necrotic area on leaves): 4.23 a B %
[1]; 125 mg/L
  Percentage of necrotic spot coverage (leaf shown in supplementary figure): 2.98%
  pest or weed control at 125 µg/mL: 87.8%
[1]; 250 mg/L spray
  SAR Induction (percentage of necrotic area on leaves): 3.28 ab AB %
[1]; 250 mg/L
  Percentage of necrotic spot coverage (leaf shown in supplementary figure): 1.28%
  pest or weed control at 250 µg/mL: 90.5%
[2]; 125 mg/L
  Reduction in Sprout Mass: 37.16%
  Mass of 25 Sprouts: 1.94 abc B g
[2]; 250 mg/L
  Reduction in Sprout Mass: 59.87%
  Mass of 25 Sprouts: 1.24 cd A g

## C[N+](C)(C)CCCl.O=C([O-])c1cccnc1 [[CC][Nic]]
[3]
  Thermal Stability T5%onset: 166.9 °C
  Thermal Stability Tonset: 89.9 °C
[1]; 125 mg/L spray
  SAR Induction (percentage of necrotic area on leaves): 19.70 de B %
[1]; 125 mg/L
  Reduction in Necrotic Area: 43.0%
[1]; 250 mg/L spray
  SAR Induction (percentage of necrotic area on leaves): 11.52 def A %
[1]; 250 mg/L
  Reduction in Necrotic Area: 66.7%
[2]; 125 mg/L
  Reduction in Sprout Mass: 8.20%
  Mass of 25 Sprouts: 2.84 hi B g
  Phytotoxic effect on radish sprout mass: no phytotoxic effect
[2]; 250 mg/L
  Reduction in Sprout Mass: 26.16%
  Mass of 25 Sprouts: 2.28 hi A g
  Phytotoxic effect on radish sprout mass: significant decrease in the radish sprout mass

## O=C(O)c1cccc(Cl)c1O [3-chlorosalicylic acid]
[1]; 125 mg/L spray
  SAR Induction (percentage of necrotic area on leaves): 4.95 a B %
[1]; 125 mg/L
  Percentage of necrotic spot coverage (leaf shown in supplementary figure): 2.62%
  pest or weed control at 125 µg/mL: 85.7%
[1]; 250 mg/L spray
  SAR Induction (percentage of necrotic area on leaves): 2.59 a AB %
[1]; 250 mg/L
  Percentage of necrotic spot coverage (leaf shown in supplementary figure): 2.30%
  pest or weed control at 250 µg/mL: 92.5%
[2]; 125 mg/L
  Reduction in Sprout Mass: 47.03%
  Mass of 25 Sprouts: 1.64 a B g
[2]; 250 mg/L
  Reduction in Sprout Mass: 72.65%
  Mass of 25 Sprouts: 0.85 a A g

## C[N+](C)(C)CCCl.O=C([O-])c1ccncc1 [[CC][IsoNic]]
[3]
  Thermal Stability T5%onset: 164.3 °C
  Thermal Stability Tonset: 85.3 °C
[1]; 125 mg/L spray
  SAR Induction (percentage of necrotic area on leaves): 24.51 ef A %
[1]; 125 mg/L
  Reduction in Necrotic Area: 29.0%
[1]; 250 mg/L spray
  SAR Induction (percentage of necrotic area on leaves): 21.48 g A %
[1]; 250 mg/L
  Reduction in Necrotic Area: 37.8%
[2]; 125 mg/L
  Reduction in Sprout Mass: 15.70%
  Mass of 25 Sprouts: 2.60 fgh C
[2]; 250 mg/L
  Reduction in Sprout Mass: 35.65%
  Mass of 25 Sprouts: 1.99 efg AB

## O=C(O)c1cc(Cl)cc(Cl)c1O [3,5-dichlorosalicylic acid]
[1]; 125 mg/L spray
  SAR Induction (percentage of necrotic area on leaves): 15.03 cd B %
[1]; 250 mg/L spray
  SAR Induction (percentage of necrotic area on leaves): 7.51 bcd A %
[1]; 125 mg/L
  pest or weed control at 125 µg/mL: 56.5%
[1]; 250 mg/L
  pest or weed control at 250 µg/mL: 78.3%
[2]; 125 mg/L
  Reduction in Sprout Mass: 32.96%
  Mass of 25 Sprouts: 2.07 bcd B g
[2]; 250 mg/L
  Reduction in Sprout Mass: 59.49%
  Mass of 25 Sprouts: 1.25 cd A g

## O=C(O)c1ccncc1 [Isonicotinic acid]
[1]; 125 mg/L spray
  SAR Induction (percentage of necrotic area on leaves): 31.12 gh B %
[1]; 250 mg/L spray
  SAR Induction (percentage of necrotic area on leaves): 25.58 g A %
[1]; 125 mg/L
  pest or weed control at 125 µg/mL: 9.9%
[1]; 250 mg/L
  pest or weed control at 250 µg/mL: 26%
[2]; 125 mg/L
  Reduction in Sprout Mass: 29.07%
  Mass of 25 Sprouts: 2.19 cde B g
[2]; 250 mg/L
  Reduction in Sprout Mass: 42.83%
  Mass of 25 Sprouts: 1.77 e A g

## C[N+](C)(C)CCCl [[CC][Cl], Chlormequat chloride, reference compound]
[3]
  Thermal Stability T5%onset: 255.0 °C
  Thermal Stability Tonset: 259.8 °C
[2]; 125 mg/L
  Reduction in Sprout Mass: 24.00%
  Mass of 25 Sprouts: 2.35 def B g
[2]; 250 mg/L
  Mass of 25 Sprouts: 2.08 fgh A
[4]
  Solubility in Isopropanol: remained insoluble
[4]; organic solvent or mixture, Solubility in Acetone, Snyder polarity index 5.1
  solubility: < 33.3 mg/mL
[4]; organic solvent or mixture, Solubility in Hexane, Snyder polarity index 0.0
  solubility: < 33.3 mg/mL
[4]; organic solvent or mixture, Solubility in Isopropanol, Snyder polarity index 4.3
  solubility: < 33.3 mg/mL
[4]; organic solvent or mixture, Solubility in Methanol, Snyder polarity index 6.6
  solubility: > 100 mg/mL
[4]; organic solvent or mixture, Solubility in Toluene, Snyder polarity index 2.3
  solubility: < 33.3 mg/mL
[4]; water, Solubility in Water, Snyder polarity index 9.0
  solubility: > 100 mg/mL

## O=C(O)c1ccc(Cl)cc1O [4-chlorosalicylic acid]
[1]; 125 mg/L spray
  SAR Induction (percentage of necrotic area on leaves): 17.06 cd C %
[1]; 250 mg/L spray
  SAR Induction (percentage of necrotic area on leaves): 8.68 cde AB %
[1]; 125 mg/L
  pest or weed control at 125 µg/mL: 50.6%
[1]; 250 mg/L
  pest or weed control at 250 µg/mL: 74.9%
[2]; 125 mg/L
  Reduction in Sprout Mass: 46.55%
  Mass of 25 Sprouts: 1.65 a B g
[2]; 250 mg/L
  Reduction in Sprout Mass: 68.45%
  Mass of 25 Sprouts: 0.98 ab A g

## O=C(O)c1cccnc1 [Nicotinic acid]
[1]; 125 mg/L spray
  SAR Induction (percentage of necrotic area on leaves): 27.69 fg C %
[1]; 250 mg/L spray
  SAR Induction (percentage of necrotic area on leaves): 22.07 g B %
[1]; 125 mg/L
  pest or weed control at 125 µg/mL: 19.8%
[1]; 250 mg/L
  pest or weed control at 250 µg/mL: 36.1%
[2]; 125 mg/L
  Reduction in Sprout Mass: 10.79%
  Mass of 25 Sprouts: 2.76 gh B
[2]; 250 mg/L
  Mass of 25 Sprouts: 2.63 j AB g

## O=C(O)c1cc(Cl)nc(Cl)c1 [2,6-dichloroisonicotinic acid]
[1]; 125 mg/L spray
  SAR Induction (percentage of necrotic area on leaves): 18.15 cd B %
[1]; 250 mg/L spray
  SAR Induction (percentage of necrotic area on leaves): 14.90 f AB %
[1]; 125 mg/L
  pest or weed control at 125 µg/mL: 47.5%
[1]; 250 mg/L
  pest or weed control at 250 µg/mL: 56.9%
[2]; 125 mg/L
  Reduction in Sprout Mass: 40.29%
  Mass of 25 Sprouts: 1.85 ab B g
[2]; 250 mg/L
  Reduction in Sprout Mass: 54.31%
  Mass of 25 Sprouts: 1.41 d A g
